Measured values published in article PMC7305236, “The atypical chemokine receptor ACKR3/CXCR7 is a broad-spectrum scavenger for opioid peptides” (Nature Communications, 2020).
Read-outs that look alike come from different tables or passages of the source.

Legend:
CCR2 = target: T1, CCR2 (Homo sapiens, UniProt P41597); test: Figure S2a opioid peptide screen on chemokine receptors; type: cell-based; parameters: dose or concentration left out as unconfirmed
T1 construct: expressed in transfected cells
T1 sequence (P41597 1-360 isoform P41597-2): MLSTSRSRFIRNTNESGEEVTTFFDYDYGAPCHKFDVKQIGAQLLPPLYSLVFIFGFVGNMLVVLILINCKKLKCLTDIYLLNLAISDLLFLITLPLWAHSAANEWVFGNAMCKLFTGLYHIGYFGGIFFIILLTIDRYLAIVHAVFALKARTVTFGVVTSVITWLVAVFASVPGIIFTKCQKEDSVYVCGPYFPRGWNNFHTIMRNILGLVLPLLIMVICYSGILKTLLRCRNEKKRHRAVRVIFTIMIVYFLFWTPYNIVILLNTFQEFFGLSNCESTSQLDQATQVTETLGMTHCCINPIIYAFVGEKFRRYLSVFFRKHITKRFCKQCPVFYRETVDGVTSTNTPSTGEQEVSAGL

CCR9 = target: T2, CCR9 (Homo sapiens, UniProt P51686); test: as above; type: cell-based; parameters: dose or concentration left out as unconfirmed
T2 construct: expressed in transfected cells
T2 sequence (P51686 1-369): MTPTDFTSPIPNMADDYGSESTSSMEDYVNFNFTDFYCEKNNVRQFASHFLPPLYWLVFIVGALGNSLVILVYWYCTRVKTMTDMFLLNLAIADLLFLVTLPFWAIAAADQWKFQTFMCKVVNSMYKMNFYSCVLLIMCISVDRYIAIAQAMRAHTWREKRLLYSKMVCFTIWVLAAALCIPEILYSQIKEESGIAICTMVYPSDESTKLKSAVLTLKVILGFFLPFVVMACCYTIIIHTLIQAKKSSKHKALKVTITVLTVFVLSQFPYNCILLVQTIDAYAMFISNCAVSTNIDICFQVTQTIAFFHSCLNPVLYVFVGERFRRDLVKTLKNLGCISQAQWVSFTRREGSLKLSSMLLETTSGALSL

CXCR3B = target: T3, CXCR3B (Homo sapiens, UniProt P49682); test: as above; type: cell-based; parameters: dose or concentration left out as unconfirmed
T3 construct: expressed in transfected cells; host or cells: U87 cells
T3 sequence (P49682 1-415 isoform P49682-2): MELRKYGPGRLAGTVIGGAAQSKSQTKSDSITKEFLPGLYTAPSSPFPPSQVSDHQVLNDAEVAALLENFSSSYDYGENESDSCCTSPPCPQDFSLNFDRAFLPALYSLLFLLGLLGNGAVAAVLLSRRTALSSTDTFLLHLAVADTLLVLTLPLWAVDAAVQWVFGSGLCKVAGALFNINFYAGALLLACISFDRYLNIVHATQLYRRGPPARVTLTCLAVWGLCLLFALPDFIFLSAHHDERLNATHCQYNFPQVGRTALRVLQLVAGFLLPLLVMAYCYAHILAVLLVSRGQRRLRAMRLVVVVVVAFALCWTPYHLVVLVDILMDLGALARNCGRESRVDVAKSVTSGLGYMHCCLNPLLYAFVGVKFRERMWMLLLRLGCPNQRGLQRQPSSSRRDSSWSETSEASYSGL

CXCR4 = target: T4, CXCR4 (Homo sapiens, UniProt P61073); test: cell-based; parameters: dose or concentration left out as unconfirmed; details: Figure S2a, read-out: CXCR4 activity, ctrl+ = 100
T4 construct: expressed in transfected cells; host or cells: U87, transient cotransfection of pNBe vectors
T4 sequence (P61073 whole entry): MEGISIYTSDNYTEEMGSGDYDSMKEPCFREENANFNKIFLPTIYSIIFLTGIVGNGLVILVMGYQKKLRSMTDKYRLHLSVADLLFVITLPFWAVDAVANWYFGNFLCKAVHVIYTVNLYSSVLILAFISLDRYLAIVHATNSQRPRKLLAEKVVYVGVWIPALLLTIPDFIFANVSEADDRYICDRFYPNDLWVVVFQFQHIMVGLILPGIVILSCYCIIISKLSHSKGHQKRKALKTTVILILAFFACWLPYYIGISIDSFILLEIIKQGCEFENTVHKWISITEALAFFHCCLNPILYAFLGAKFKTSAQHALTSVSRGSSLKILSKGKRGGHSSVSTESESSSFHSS

CXCR5 = target: T5, CXCR5 (Homo sapiens, UniProt P32302); test: Figure S2a opioid peptide screen on chemokine receptors; type: cell-based; parameters: dose or concentration left out as unconfirmed
T5 construct: expressed in transfected cells
T5 sequence (P32302 1-372): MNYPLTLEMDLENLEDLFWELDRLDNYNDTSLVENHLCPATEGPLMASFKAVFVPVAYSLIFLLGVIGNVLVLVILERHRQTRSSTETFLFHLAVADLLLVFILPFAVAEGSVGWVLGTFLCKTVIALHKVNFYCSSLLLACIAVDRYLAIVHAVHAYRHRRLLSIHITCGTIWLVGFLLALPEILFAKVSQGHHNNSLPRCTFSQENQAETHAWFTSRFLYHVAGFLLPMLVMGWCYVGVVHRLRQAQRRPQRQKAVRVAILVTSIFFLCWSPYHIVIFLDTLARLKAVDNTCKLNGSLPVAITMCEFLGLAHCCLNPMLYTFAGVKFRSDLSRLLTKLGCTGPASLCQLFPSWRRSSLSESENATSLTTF

ACKR = target: T6, ACKR (Homo sapiens, UniProt P25106); test: Figure 6h, ACKR, DMSO vs Bafilomycin treatment; type: cell-based; details: n = 3 or 4 as in cell
T6 construct: expressed in transfected cells; host or cells: U87 cells (human glioblastoma)
T6 sequence (P25106 whole entry): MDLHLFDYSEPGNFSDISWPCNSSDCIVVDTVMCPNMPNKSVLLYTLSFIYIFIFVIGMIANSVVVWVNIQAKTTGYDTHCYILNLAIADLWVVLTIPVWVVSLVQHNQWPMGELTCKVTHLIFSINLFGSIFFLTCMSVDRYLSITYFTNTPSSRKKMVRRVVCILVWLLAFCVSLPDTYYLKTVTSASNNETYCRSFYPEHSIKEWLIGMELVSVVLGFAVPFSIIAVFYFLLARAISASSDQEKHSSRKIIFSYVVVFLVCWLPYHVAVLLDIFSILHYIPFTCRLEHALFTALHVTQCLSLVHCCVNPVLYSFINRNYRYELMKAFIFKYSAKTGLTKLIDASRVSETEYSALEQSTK

ACKR3 = ACKR3 (Homo sapiens, UniProt P25106); test: cell-based; parameters: dose or concentration left out as unconfirmed; details: read-out: ACKR3 activity, ctrl+ = 100, Figure S2a
Sequence of ACKR3 (P25106 whole entry): as above

KOR = KOR (Homo sapiens, UniProt P41145); test: Figure 6h, KOR, DMSO vs Bafilomycin treatment; type: cell-based; parameters: expressed in transfected cells; host or cells: U87 (human glioblastoma); details: n = 3 or 4 as in cell
Sequence of KOR (P41145 whole entry): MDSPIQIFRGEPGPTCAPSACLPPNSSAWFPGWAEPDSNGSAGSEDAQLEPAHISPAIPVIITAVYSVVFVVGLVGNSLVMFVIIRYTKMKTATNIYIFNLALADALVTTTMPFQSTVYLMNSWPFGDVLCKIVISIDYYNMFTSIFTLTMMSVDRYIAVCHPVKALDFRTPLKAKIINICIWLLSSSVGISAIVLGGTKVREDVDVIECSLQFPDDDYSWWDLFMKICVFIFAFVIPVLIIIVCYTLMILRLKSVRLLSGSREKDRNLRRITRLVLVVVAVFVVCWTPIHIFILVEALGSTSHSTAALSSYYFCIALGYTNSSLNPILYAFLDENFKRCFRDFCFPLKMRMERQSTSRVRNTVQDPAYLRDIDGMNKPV

[1] = replicate 1, read-out: CCR2 activity, ctrl+ = 100
[2] = replicate 2, read-out: CCR2 activity, ctrl+ = 100
[3] = replicate 1, read-out: CCR9 activity, ctrl+ = 100
[4] = replicate 2, read-out: CCR9 activity, ctrl+ = 100
[5] = replicate 1, read-out: CXCR3B activity, ctrl+ = 100
[6] = replicate 2, read-out: CXCR3B activity, ctrl+ = 100
[7] = replicate 1, read-out: CXCR5 activity, ctrl+ = 100
[8] = replicate 2, read-out: CXCR5 activity, ctrl+ = 100
[9] = 'DMSO vs Bafilomycin treatment'
[10] = first of two columns under 'DMSO vs Bafilomycin treatment' (presumably DMSO)

Structure (SMILES)	activation (CCR2; [1]) [%]	activation (CCR2; [2]) [%]	activation (CCR9; [3]) [%]	activation (CCR9; [4]) [%]	activation (CXCR3B; [5]) [%]	activation (CXCR3B; [6]) [%]	activation (CXCR4; replicate 1) [%]	activation (CXCR4; replicate 2) [%]	activation (CXCR5; [7]) [%]	activation (CXCR5; [8]) [%]	activation (ACKR3; replicate 1) [%]	activation (ACKR3; replicate 2) [%]	other results
CC(C)C[C@H](NC(=O)[C@H](Cc1ccccc1)NC(=O)CNC(=O)CNC(=O)[C@@H](N)Cc1ccc(O)cc1)C(=O)N[C@@H](CCCN=C(N)N)C(=O)N[C@@H](CCCN=C(N)N)C(=O)N[C@@H](CCC(N)=O)C(=O)N[C@@H](Cc1ccccc1)C(=O)N[C@@H](CCCCN)C(=O)N[C@H](C(=O)N[C@H](C(=O)N[C@H](C(=O)O)[C@@H](C)O)C(C)C)C(C)C [Dynorphin B]	0.688	-2.18	-1.23	-1.3	-3.84	-0.0101	-12.2	7.15	-2.46	-6.11	87	63.5	activation (CCR2; replicate 3, read-out: CCR2 activity, ctrl+ = 100): 1.67%; activation (CCR9; replicate 3, read-out: CCR9 activity, ctrl+ = 100): 15.7%; activation (CXCR3B; replicate 3, read-out: CXCR3B activity, ctrl+ = 100): 0.918%; activation (CXCR4; replicate 3): -6.95%; activation (CXCR5; replicate 3, read-out: CXCR5 activity, ctrl+ = 100): 11.3%; Mean ± SEM (Figure 6h, ACKR) (ACKR; [9]): 90,67 ± 2,557, n=3; Mean ± SEM (Figure 6h, ACKR) (ACKR; [10]): 114,2 ± 9,487, n=3; activation (ACKR3; replicate 3): 94.7%; Mean ± SEM (Figure 6h, KOR) (KOR; [9]): 30,69 ± 2,71, n=3; Mean ± SEM (Figure 6h, KOR) (KOR; [10]): 28,51 ± 2,354, n=3
CC[C@H](C)[C@H](NC(=O)[C@H](CCCNC(=N)N)NC(=O)[C@H](CCCNC(=N)N)NC(=O)[C@H](CC(C)C)NC(=O)[C@H](Cc1ccccc1)NC(=O)CNC(=O)CN)C(=O)N[C@@H](CCCNC(=N)N)C(=O)N1CCC[C@H]1C(=O)N[C@@H](CCCCN)C(=O)N[C@@H](CC(C)C)C(=O)N[C@@H](CCCCN)C(=O)N[C@@H](Cc1c[nH]c2ccccc12)C(=O)N[C@@H](CC(=O)O)C(=O)N[C@@H](CC(N)=O)C(=O)N[C@@H](CCC(N)=O)C(=O)O [Dynorphin 2-17]	0.747	-1.44	1.95	0.179	-1.19	-3.44	-9.77	-26.7	-2.49	-3.33	72.7	26.1	
NC(=O)[C@H](Cc1ccccc1)NC(=O)[C@H](Cc1c[nH]c2ccccc12)NC(=O)[C@@H]1CCCN1C(=O)[C@@H](N)Cc1ccc(O)cc1 [Endomorphin-1]	0.794	-3.22	-1.12	1.74	-0.0115	13	36.3	16.8	1.35	-1.48	5.29	17	
